Data on 4 compounds can be found in US20090292124A1, “Therapeutic Agent for Nausea and/or Vomiting” (TORAY INDUSTRIES, INC. a corporation of Japan, priority 2005, published 2009).

Marks after values point to notes of the source that are not given here.

What all share (assay type): in vivo
Data set [1] is described as follows: Test of brain penetration (Reference Example 1, intravenous). As to conditions: rat, Jcl-SD male rats, non-fasting, 0.5 mg/kg intravenously, brain and plasma 15 minutes after administration, n=2. The protocol:
Jcl-SD male rats of 7 weeks of age
The test compound in an amount of 1.0 mg was dissolved in 0.8 mL of N,N-dimethylacetamide, and 0.8 mL of propylene glycol was added thereto.
The test compound was intravenously administered to non-fasting rats (0.5 mg/0.8 mL/kg, n=2) through the tail vein, and total blood was collected from the lower aorta 15 minutes after the administration. An aliquot of the blood was centrifuged (3000 rpm, 10 minutes, 4° C.), and the concentration of unchanged compound in the obtained blood plasma was measured by LC/MS/MS method.
(§1) After the above-described collection of the total blood, the brain was enucleated from each rat, and homogenized to prepare a 25% homogenate, followed by measurement of the concentration of unchanged compound by LC/MS/MS method.
From the obtained concentrations, Kp values were determined. As a result, the Kp value of NIT was 1.30.

In another data set the test system is ferrets. Kind of data set: Influence on nausea and vomiting induced by morphine. As to conditions: test substance 5 mg/kg 30 min before morphine 0.6 mg/kg s.c.; for Appearance Frequency / Duration / Latent Time: mean ± standard error; for Latent Time: no symptom counted as 30 min; for Number of Individuals Presenting Symptoms (Number of Individuals Presenting Symptoms/Number of Cases): observed 30 min. The protocol: About 30 minutes after feeding, ferrets were transferred to observation cages, and the test substances were administered, respectively. Each test substance was dissolved in 5% xylitol, and administered at a dose of 5 mg/kg. Thirty minutes after administration of the test solution, 0.6 mg/kg of morphine was subcutaneously administered at a volume of 1 mL/kg, and the symptoms of vomiting were visually observed until 30 minutes after the administration of morphine.
The appearance frequency, latent time (the time from the administration of morphine to the first appearance of the symptom) and duration (the time from the first vomiting to the final vomiting) of nausea (rhythmical contractile motion of abdomen), of vomiting (vomiting behavior excreting vomit or analogous behavior thereof) and of the total of nausea and vomiting were counted, respectively.

Data set [2] is described as follows: Test of brain penetration (Test Example 2, oral). As to conditions: rat, Crj:CD(SD)IGS male rats, non-fasting, 30 mg/kg orally, brain and plasma 2 hours after administration, n=3. On the procedure: Crj:CD(SD)IGS male rats of 7-8 weeks of age
Each of the test compounds in an amount of 90 mg was suspended in 0.5% methylcellulose 1500 cp to a total volume of 6 mL.
Each test compound was orally administered to non-fasting rats (30 mg/2 mL/kg, n=3), and total blood was collected from the lower aorta 2 hours after the administration. An aliquot of the blood was centrifuged (3000 rpm, 10 minutes, 4° C.), and the concentration of unchanged compound in the obtained blood plasma was measured by LC/MS/MS method.
as §1
From the obtained concentrations, Kp values were determined.

The Kp is tissue or fluid exposure divided by exposure in the circulation.

In the case of `Oc1ccc2c3c1O[C@H]1c4[nH]c5ccccc5c4C[C@@]4(O)[C@@H](C2)N(CC2CC2)CC[C@]314` [NIT, naltrindole], the partition ratio (Kp) at 0.25 h in data set [1] is 1.3.
With `Cn1c2c(c3ccccc31)C[C@@]1(O)[C@H]3Cc4ccc(O)c5c4[C@@]1(CCN3CC1CC1)[C@H]2O5` [Compound 1], in the data set on ferrets (Nausea + Vomiting), the “Appearance Frequency” value is reported as 0 ± 0, the Duration is given as 0 ± 0 min, the “Latent Time” value came to 30 ± 0 min and the “Number of Individuals Presenting Symptoms (Number of Individuals Presenting Symptoms/Number of Cases)” value was 0/6##. Further, in the data set with ferrets (Nausea), the “Appearance Frequency” value was 0 ± 0, the Duration turned out to be 0 ± 0 min, the “Latent Time” value was 30 ± 0 min and the “Number of Individuals Presenting Symptoms (Number of Individuals Presenting Symptoms/Number of Cases)” value is 0/6##. In the data set on ferrets (Vomiting), the “Appearance Frequency” value was found to be 0 ± 0, the Duration came out at 0 ± 0 min, the “Latent Time” value is given as 30 ± 0 min and the “Number of Individuals Presenting Symptoms (Number of Individuals Presenting Symptoms/Number of Cases)” value is listed as 0/6.
On to `Cc1ccc(/C=C2\C[C@@]3(O)[C@H]4Cc5ccc(O)c6c5[C@@]3(CCN4CC3CC3)[C@@H](O6)C2=O)cc1` [Compound 3], for which, in the data set on ferrets (Nausea + Vomiting), the “Appearance Frequency” value was 0 ± 0, the Duration is on record as 0 ± 0 min, the “Latent Time” value is 30 ± 0 min and the “Number of Individuals Presenting Symptoms (Number of Individuals Presenting Symptoms/Number of Cases)” value is recorded as 0/6##. In the data set on ferrets (Nausea), the “Appearance Frequency” value was found to be 0 ± 0, the Duration is reported as 0 ± 0 min, the “Latent Time” value is given as 30 ± 0 min and the “Number of Individuals Presenting Symptoms (Number of Individuals Presenting Symptoms/Number of Cases)” value is reported as 0/6##. In the data set with ferrets (Vomiting), the “Appearance Frequency” value is on record as 0 ± 0, the Duration worked out at 0 ± 0 min, the “Latent Time” value worked out at 30 ± 0 min and the “Number of Individuals Presenting Symptoms (Number of Individuals Presenting Symptoms/Number of Cases)” value is listed as 0/6. In data set [2], this compound yielded a Kp at 2 h of 0.46.
As for `CCOC(=O)c1ccc2c3c([nH]c2c1)[C@@H]1Oc2c(O)ccc4c2[C@@]12CCN(CC1CC1)[C@H](C4)[C@]2(O)C3` [Compound 2], in the data set on ferrets (Nausea + Vomiting), the “Appearance Frequency” value is on record as 0 ± 0, the Duration worked out at 0 ± 0 min, the “Latent Time” value was 30 ± 0 min and the “Number of Individuals Presenting Symptoms (Number of Individuals Presenting Symptoms/Number of Cases)” value is 0/6##. Moreover, in the data set on ferrets (Nausea), the “Appearance Frequency” value turned out to be 0 ± 0, the Duration stood at 0 ± 0 min, the “Latent Time” value came out at 30 ± 0 min and the “Number of Individuals Presenting Symptoms (Number of Individuals Presenting Symptoms/Number of Cases)” value is listed as 0/6##. In addition, in the data set with ferrets (Vomiting), the “Appearance Frequency” value is given as 0 ± 0, the Duration was found to be 0 ± 0 min, the “Latent Time” value is given as 30 ± 0 min and the “Number of Individuals Presenting Symptoms (Number of Individuals Presenting Symptoms/Number of Cases)” value is reported as 0/6. The compound further returned a Kp at 2 h in data set [2] of 0.18.
